# Assay results reported in patent publication US9938562B2, “Naphthalene derived chromogenic enzyme substrates” (Glycosynth Limited, priority 2013, dated 2018).
# Counter-ions that a name gives are not always drawn. Like-named read-outs stand apart in the source and are kept apart here.
# How the values were obtained:
# [1] = test system: Staphylococcus epidermidis NCTC 11047; test: Agar plate multi-point inoculation, colour; format: cell-based
# [2] = test system: Bacillus subtilis NCTC 9372; test: Agar plate multi-point inoculation, colour; format: cell-based
# [3] = test system: Salmonella typhimurium NCTC 74; test: Agar plate multi-point inoculation, colour; format: cell-based
# [4] = test system: Candida albicans ATCC 90028; format: cell-based; conditions: Columbia agar, FAC 500 mg/L, substrate 300 mg/L, 37° C. 18 h in air
# [5] = test system: Staphylococcus aureus (MRSA) NCTC 11939; test: Agar plate multi-point inoculation, colour; format: cell-based; conditions: for Colour: Columbia agar, FAC 500 mg/L, substrate 300 mg/L, 37° C. 18 h in air
# [6] = test system: Candida glabrata NCPF 3943; test: Agar plate multi-point inoculation, colour; format: cell-based
# [7] = test system: Enterococcus faecium NCTC 7171; test: Agar plate multi-point inoculation, colour; format: cell-based
# [8] = test system: Steptococcus pyogenes NCTC 8306; test: Agar plate multi-point inoculation, colour; format: cell-based
# [9] = test system: Listeria monocytogenes NCTC 11994; test: Agar plate multi-point inoculation, colour; format: cell-based
# [10] = test system: Enterococcus faecalis NCTC 775; test: Agar plate multi-point inoculation, colour; format: cell-based
# [11] = test system: Yersinia enterocolitica NCTC 11176; test: Agar plate multi-point inoculation, colour; format: cell-based; conditions: Columbia agar, FAC 500 mg/L, substrate 300 mg/L, 37° C. 18 h in air
# [12] = test system: Burkholderia cepacia 1222; test: Agar plate multi-point inoculation, colour; format: cell-based; conditions: Columbia agar, FAC 500 mg/L, substrate 300 mg/L, 37° C. 18 h in air
# [13] = test system: Citrobacter freundii NCTC 9750 or 46262; test: Agar plate multi-point inoculation, colour; format: cell-based; conditions: Columbia agar, FAC 500 mg/L, substrate 300 mg/L, 37° C. 18 h in air
# [14] = test system: Providencia rettgeri NCTC 7475; test: Agar plate multi-point inoculation, colour; format: cell-based
# [15] = test system: Morganella morganii 462403 (wild); test: Agar plate multi-point inoculation, colour; format: cell-based; conditions: Columbia agar, FAC 500 mg/L, substrate 300 mg/L, 37° C. 18 h in air
# [16] = test system: Pseudomonas aeruginosa NCTC 10662; test: Agar plate multi-point inoculation, colour; format: cell-based
# [17] = test system: Enterobacter cloacae NCTC 11936; test: Agar plate multi-point inoculation, colour; format: cell-based
# [18] = test system: Serratia marcescens NCTC 10211; test: Agar plate multi-point inoculation, colour; format: cell-based
# [19] = test system: Staphylococcus aureus NCTC 6571; test: Agar plate multi-point inoculation, colour; format: cell-based
# [20] = test system: Escherichia coli NCTC 10418; test: Agar plate multi-point inoculation, colour; format: cell-based
# [21] = test system: Acinetobacter baumannii NCTC 19606; test: Agar plate multi-point inoculation, colour; format: cell-based
# [22] = test system: Burkholderia cepacia NCTC 10931; test: Agar plate multi-point inoculation, colour; format: cell-based; conditions: Columbia agar, FAC 500 mg/L, substrate 300 mg/L, 37° C. 18 h in air
# [23] = test system: Klebsiella pneumoniae NCTC 9528; test: Agar plate multi-point inoculation, colour; format: cell-based
# range of microorganisms = test: Agar plate evaluation with a range of microorganisms (hue, diffusion, background); format: cell-based; conditions: agar plates with FAC
# [24] = Columbia agar, FAC 500 mg/L, substrate 300 mg/L, 37° C. 18 h in air
Structure (SMILES),melting point,"Colour [1, 24]","Colour [2, 24]","Colour [3, 24]",Colour [4],Colour [5],"Colour [6, 24]","Colour [7, 24]","Colour [8, 24]","Colour [9, 24]","Colour [10, 24]",Colour [11],Colour [12],Colour [13],"Colour [14, 24]","Colour [16, 24]","Colour [17, 24]","Colour [18, 24]","Colour [19, 24]","Colour [20, 24]",further results
"O=C(O)C1OC(Oc2cc3ccccc3cc2O)C(O)C(O)C1O (as salt: salt) [Compound 12a, DHN-β-D-glucuronide CHA Salt]",223 to 224 °C,,,,,,,,,,,,,,,,,,,,
"O=C(O)C1OC(Oc2cc3cc(Br)c(Br)cc3cc2O)C(O)C(O)C1O (as salt: salt) [Compound 29, 6,7-Dibromo-DHN-β-D-glucuronide CHA Salt]",221 to 224 °C,,,,,,,,,,,,,,,,,,,,
"OC[C@H]1O[C@@H](Oc2cc3ccccc3cc2O)C(O)C1O (stereo partly drawn) [Compound 2, DHN-β-D-ribofuranoside]",181 to 182 °C,−,−,++,−,+,−,−,−,−,−,−,−,++,++,−,++,++,+,++,hydrolysis of substrate ([1]; agar plates with FAC): unaffected; hydrolysis of substrate ([5]; agar plates with FAC): able to hydrolyse; Colour [15]: ++; hydrolysis of substrate ([19]; agar plates with FAC): able to hydrolyse
"OCC1OC(Oc2cc3ccccc3cc2O)C(O)C(O)C1O [Compound 4, DHN-β-D-glucopyranoside]",> 210 °C (dec.),−,+,−,−,−,−,+,−,+,+,−,,,++,−,+,++,−,Tr.,"Colour [21, 24]: −; Colour [22]: −; Colour [23, 24]: ++"
"OCC1OC(Oc2cc3ccccc3cc2O)C(O)C(O)C1O [Compound 6, DHN-α-D-glucopyranoside]",164 to 166 °C,+,++,−,−,+/−,−,Tr.,++,++,++,Tr.,−,−,−,−,++,++,+/−,+,Colour [15]: −
"OCC1OC(Oc2cc3ccccc3cc2O)C(O)C(O)C1O [Compound 10, DHN-α-D-galactopyranoside]",,−,−,−,−,−,−,−,−,−,−,−,−,−,−,−,Tr.,−,−,Tr.,Colour [15]: −
"O=C([O-])C1OC(Oc2cc3ccccc3cc2O)C(O)C(O)C1O.[Na+] [Compound 12b, DHN-β-D-glucuronide Sodium Salt]",53 to 55 °C,−,−,−,−,−,−,−,−,−,−,−,−,−,−,−,−,−,−,++,Colour [15]: −; hydrolysis of substrate (judged by colour) ([20]; agar plates containing FAC): strong colour
"CC(=O)NC1C(Oc2cc3ccccc3cc2O)OC(CO)C(O)C1O [Compound 15, DHN-N-acetyl-β-D-glucosaminide]",204 to 205 °C,−,−,−,−,−,−,++,++,++,++,+,−,−,−,−,+/−,++,−,−,Colour [15]: −
"CCCCCCCC(=O)Oc1cc2ccccc2cc1OC(=O)CCCCCCC [Compound 16, DHN-dicaprylate]",,−,−,−,−,−,−,−,−,−,−,−,,,+,+,−,+,−,−,"Colour [21, 24]: +; Colour [22]: −; Colour [23, 24]: −"
"O=P([O-])([O-])Oc1cc2ccccc2cc1O.[Na+].[Na+] [Compound 17, DHN-phosphate Disodium Salt]",,,,,−,+,,,,,,+/−,,,,,,,,,Colour [21]: −; Colour [1]: −; Colour [2]: −; Colour [22]: +/−; Colour [3]: ++; Colour [6]: −; Colour [7]: −; Colour [23]: ++; Colour [8]: −; Colour [9]: +; Colour [10]: −; Colour [14]: +; Colour [16]: −; Colour [17]: +/−; Colour [18]: ++; Colour [19]: +; Colour [20]: +/−
"O=[N+]([O-])c1c(O)c(O[C@@H]2O[C@H](CO)C(O)C2O)cc2ccccc12 (stereo partly drawn) [Compound 19, 1-Nitro-DHN-β-D-ribofuranoside]",> 170 °C (dec.),,,,,,,,,,,,,,,,,,,,colour (hue) after hydrolysis (range of microorganisms): more distinctly red
"OCC1OC(Oc2cc3cc(Br)c(Br)cc3cc2O)C(O)C(O)C1O [Compound 25, 6,7-Dibromo-DHN-β-D-galactopyranoside]",256 to 257 °C,−,−,−,−,−,−,+/−,−,+/−,Tr.,−,+/−,+,−,−,−,+,−,++,Colour [15]: −
"OCC1OC(Oc2cc3cc(Br)c(Br)cc3cc2O)C(O)C(O)C1O [Compound 27, 6,7-Dibromo-DHN-β-D-glucopyranoside]",,−,+,−,−,Tr.,−,+/−,−,+/−,Tr.,−,+,+,++,−,−,++,Tr.,Tr.,Colour [15]: −
"O=C(O)C1OC(Oc2cc3cc(Br)c(Br)cc3cc2O)C(O)C(O)C1O [Compound 29, 6,7-Dibromo-DHN-β-D-glucuronide CHA Salt]",,,,,−,−,,,,,,−,−,−,,,,,,,Colour [1]: −; Colour [2]: −; Colour [3]: −; Colour [6]: −; Colour [7]: −; Colour [8]: −; Colour [9]: −; Colour [10]: −; Colour [14]: −; Colour [15]: −; Colour [16]: −; Colour [17]: −; Colour [18]: −; Colour [19]: −; Colour [20]: ++
